# In ChEMBL document CHEMBL5528066, “Discovery of Novel N-(Anthracen-9-ylmethyl) Benzamide Derivatives as ZNF207 Inhibitors Promising in Treating Glioma” (J Med Chem, 2024):
# Active and inactive are the calls of the source. No cut-off for these calls is given here.
# Key:
# [1] = target: T1, BUB3-interacting and GLEBS motif-containing protein ZNF207 (Homo sapiens, UniProt O43670); test: Binding affinity to human ZNF207 assessed as dissociation constant by SPR analysis
# [2] = target: T1, BUB3-interacting and GLEBS motif-containing protein ZNF207; test: Binding affinity to ZNF207 in human U-251MG cells assessed as thermal stabilization by measuring melting temperature at 30 uM incubated for 3 hrs by CETSA (reference value: 48.7 degreeC); type: cell-based
# U-937 = test: Antiproliferative activity against human U-937 cells assessed as inhibition of cell growth incubated for 72 hrs by CCK-8 assay; type: functional, cell-based; details: U-937, 72 h
# NCI-H460 = test: Antiproliferative activity against human NCI-H460 cells assessed as inhibition of cell growth incubated for 72 hrs by CCK-8 assay; type: functional, cell-based; details: NCI-H460, 72 h
# LN-229 [3] = test: Inhibition of sphere formation in human LN-229 cells incubated for 168 hrs by microscopic analysis; type: functional, cell-based; details: LN-229, 168 h
# Hs 683 [4] = test: Inhibition of sphere formation in human Hs 683 cells incubated for 168 hrs by microscopic analysis; type: functional, cell-based; details: Hs 683, 168 h
# Hs 683 [5] = test: Inhibition of colony formation in human Hs 683 cells assessed as reduction in number of cell clones treated on day 1 and measured after 14 days by crystal violet staining based microscopic analysis; type: functional; details: dose 0.625-5 µM, time 14.0 day
# H4 [6] = test: Inhibition of sphere formation in human H4 cells assessed as fold reduction in sphere initiating frequency at 2 uM incubated for 10 days by microscopic analysis relative to control; type: functional; details: time 10 day
# H4 [7] = test: Inhibition of sphere formation in human H4 cells assessed as fold reduction in sphere initiating frequency at 8 uM incubated for 10 days by microscopic analysis relative to control; type: functional; details: time 10 day
# Hs 683 [8] = test: Inhibition of sphere formation in human Hs 683 cells assessed as fold reduction in sphere initiating frequency at 8 uM incubated for 10 days by microscopic analysis relative to control; type: functional; details: time 10 day
# U-251 [9] = test: Inhibition of sphere formation in human U-251MG cells assessed as fold reduction in sphere initiating frequency at 2 uM incubated for 10 days by microscopic analysis relative to control; type: functional; details: time 10 day
# U-251 [10] = test: Inhibition of sphere formation in human U-251MG cells assessed as fold reduction in sphere initiating frequency at 4 uM incubated for 10 days by microscopic analysis relative to control; type: functional; details: time 10 day
# U-251 [11] = test: Induction of apoptosis in human U-251MG cells assessed as apoptotic cells at 2.5 uM incubated for 24 hrs by Annexin V-FITC/PI staining based flow cytometry analysis relative to control; type: functional
# LN-229 [12] = test: Inhibition of cell migration in human LN-229 cells assessed as reduction in wound closure ability at 5 uM measured after 24 hrs by wound healing assay relative to control; type: functional
# [13] = Drug concentration in female Sprague-Dawley rat heart at 45 mg/kg, po measured after 8 hrs by LC-MS/MS analysis; type: ADME, organism-based; details: read-out: Ct
# [14] = Drug concentration in female Sprague-Dawley rat kidney at 45 mg/kg, po measured after 8 hrs by LC-MS/MS analysis; type: ADME, organism-based; details: read-out: Ct
# [15] = Drug concentration in female Sprague-Dawley rat stomach at 45 mg/kg, po measured after 8 hrs by LC-MS/MS analysis; type: ADME, organism-based; details: read-out: Ct
# [16] = Drug concentration in male Sprague-Dawley rat intestine at 45 mg/kg, po measured after 8 hrs by LC-MS/MS analysis; type: ADME, organism-based; details: read-out: Ct
# [17] = Drug concentration in female Sprague-Dawley rat intestine at 45 mg/kg, po measured after 8 hrs by LC-MS/MS analysis; type: ADME, organism-based; details: read-out: Ct
# MDR1 = test: Efflux ratio of apparent permeability across basolateral to apical side over apical to basolateral side in MDCKII-MDR1 cells at 1 uM incubated for 2 hrs by LC-MS/MS analysis; type: ADME, cell-based, Canis lupus familiaris; details: dog, MDCK-MDR1
# [18] = Toxicity in male C57BL/6 mouse assessed as change in cellular structure of liver at 45 mg/kg, po administered once a day for 2 weeks by H and E staining based analysis; type: organism-based; details: in vivo, 336 h
# [19] = Toxicity in male C57BL/6 mouse assessed as change in cellular structure of kidney at 45 mg/kg, po administered once a day for 2 weeks by H and E staining based analysis; type: organism-based; details: in vivo, 336 h
# [20] = Toxicity in male C57BL/6 mouse assessed as change in cellular structure of intestine at 45 mg/kg, po administered once a day for 2 weeks by H and E staining based analysis; type: organism-based; details: in vivo, 336 h
# [21] = Toxicity in male C57BL/6 mouse assessed as change in cellular structure of thymus at 45 mg/kg, po administered once a day for 2 weeks by H and E staining based analysis; type: organism-based; details: in vivo, 336 h
# LN-229 [22] = test: Antitumor activity against human LN-229 cells xenografted in BALB/c nude mouse assessed as tumor growth delay by measuring tumor volume at 45 mg/kg, po administered once a day and measured every 2 days for 49 days (reference value: 700 […]); type: functional; details: time 49 day
# LN-229 [23] = test: Antitumor activity against human LN-229 cells xenografted in BALB/c nude mouse assessed as reduction in proportion of p-H3 positive cells at 15 to 45 mg/kg, po administered once a day and measured after 49 days by immunohistochemistry analysis; type: functional, organism-based; details: dose 15-45 mg/kg, time 49.0 day
# LN-229-Luc = test: Antitumor activity against human Ln-229-Luc cells xenografted in BALB/c nude mouse assessed as reduction in tumor load at 45 mg/kg, po administered once a day and measured on day 25 by bioluminescence imaging analysis relative to control; type: functional; details: time 25 day
# H4 [24] = test: Inhibition of sphere formation in human H4 cells at 1 uM measured after 10 days in well containing 10000 cells by microscopic analysis; type: functional, cell-based; details: time 10.0 day
# H4 [25] = test: Inhibition of sphere formation in human H4 cells at 4 uM measured after 10 days in well containing 10000 cells by microscopic analysis; type: functional, cell-based; details: time 10.0 day
# H4 [26] = test: Inhibition of sphere formation in human H4 cells at 2 uM measured after 10 days in well containing 100 cells by microscopic analysis; type: functional, cell-based; details: time 10.0 day
# H4 [27] = test: Inhibition of sphere formation in human H4 cells at 8 uM measured after 10 days in well containing 10 cells by microscopic analysis; type: functional, cell-based; details: time 10.0 day
# LN-229 [28] = test: Inhibition of sphere formation in human LN-229 cells at 1 uM measured after 10 days in well containing 10000 cells by microscopic analysis; type: functional, cell-based; details: time 10.0 day
# LN-229 [29] = test: Inhibition of sphere formation in human LN-229 cells at 8 uM measured after 10 days in well containing 10 cells by microscopic analysis; type: functional, cell-based; details: time 10.0 day
# Hs 683 [30] = test: Inhibition of sphere formation in human Hs 683 cells at 8 uM measured after 10 days in well containing 1 cells by microscopic analysis; type: functional, cell-based; details: time 10.0 day
# U-251 [31] = test: Inhibition of sphere formation in human U-251MG cells at 1 uM measured after 10 days in well containing 1000 cells by microscopic analysis; type: functional, cell-based; details: time 10.0 day
# U-251 [32] = test: Inhibition of sphere formation in human U-251MG cells at 8 uM measured after 10 days in well containing 10 cells by microscopic analysis; type: functional, cell-based; details: time 10.0 day
# U-251 [33] = test: Inhibition of sphere formation in human U-251MG cells at 1 uM measured after 10 days in well containing 1 cells by microscopic analysis; type: functional, cell-based; details: time 10.0 day
# T1 sequence (O43670 whole entry): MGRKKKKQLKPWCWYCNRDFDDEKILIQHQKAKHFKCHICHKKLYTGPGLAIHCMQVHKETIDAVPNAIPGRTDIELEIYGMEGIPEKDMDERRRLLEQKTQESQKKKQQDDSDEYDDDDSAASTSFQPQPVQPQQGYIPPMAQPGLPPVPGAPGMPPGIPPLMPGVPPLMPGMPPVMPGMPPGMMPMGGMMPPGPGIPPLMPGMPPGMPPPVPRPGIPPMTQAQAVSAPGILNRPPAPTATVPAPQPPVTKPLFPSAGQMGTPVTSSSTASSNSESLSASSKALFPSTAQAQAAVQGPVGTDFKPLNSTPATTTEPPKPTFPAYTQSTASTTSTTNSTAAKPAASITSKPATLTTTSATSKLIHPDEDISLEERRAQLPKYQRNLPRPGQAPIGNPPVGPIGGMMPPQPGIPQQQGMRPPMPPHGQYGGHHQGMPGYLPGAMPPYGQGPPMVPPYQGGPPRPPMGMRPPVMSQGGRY
smiles,measurement,setting,value
N#CC1(C(=O)NCCC2CCN(Cc3ccccc3)CC2)CC2(Br)c3ccccc3C1c1ccccc12 (racemic),Kd,[1],67 nM
same,Tm,[2],53.9 °C
same,IC50,U-937,14000 nM
same,IC50,NCI-H460,15600 nM
same,IC50,LN-229 [3],1230 nM
same,IC50,Hs 683 [4],2100 nM
same,inhibition,Hs 683 [5],Dose-Dependent Effect
same,fold change (FC),H4 [6],25.31
same,fold change (FC),H4 [7],51.75
same,fold change (FC),Hs 683 [8],104.96
same,fold change (FC),U-251 [9],35.63
same,fold change (FC),U-251 [10],78.18
same,Activity,U-251 [11],~20%
same,inhibition at 5 µM,LN-229 [12],16.6%
same,concentration at 8 h,[13],783 ng/g
same,concentration at 8 h,[14],816 ng/g
same,concentration at 8 h,[15],4370 ng/g
same,concentration at 8 h,[16],688 ng/g
same,concentration at 8 h,[17],442 ng/g
same,"efflux ratio at 2 h, 1 µM",MDR1,3.25
same,Activity,[18],Non-Toxic
same,Activity,[19],Non-Toxic
same,Activity,[20],Non-Toxic
same,Activity,[21],Non-Toxic
same,Activity,LN-229 [22],200 mm3
same,Activity,LN-229 [23],Active
same,fold change (FC),LN-229-Luc,7.6
same,inhibition,H4 [24],inactive
same,inhibition,H4 [25],inactive
same,inhibition,H4 [26],Active
same,inhibition,H4 [27],Active
same,inhibition,LN-229 [28],inactive
same,inhibition,LN-229 [29],Active
same,inhibition,Hs 683 [30],Active
same,inhibition,U-251 [31],inactive
same,inhibition,U-251 [32],Active
same,inhibition,U-251 [33],Active
